Assay results from patent US20030170643A1, “Regulation of apoB treatment and drug screening for cardiovascular and metabolic disorders or syndromes” (priority 1999, published 2003).

Columns and labels:
Type in all cases: cell-based
[1] = tested on: McArdle RH-7777 cells; experiment: Secretion of labeled apoB and apoE by McArdle RH-7777 cells after MTP inhibition; conditions: rat hepatoma cells, 4 hr, MTP inhibitor
Protocol: FIG. 7 illustrates that inhibition of MTP reduces the secretion of newly synthesized apoB100 without affecting apoE. Rat McA hepatoma cells were incubated at 37 °C for 4 hr with [ ^35S]methionine in the absence (Control) or presence (MTPI) of an inhibitor of MTP activity. Equal aliquots of the conditioned media samples from duplicate wells were subjected to separate immunoprecipitations with anti-apoB or anti-apoE antiserum. For each well, the resulting pellets from the two immunoprecipitations were combined and analyzed by SDS-PAGE and fluorography.
To determine the differential effects of MTP inhibition on the secretion of labeled apoB and apoE, in some experiments, McArdle RH-7777 cells were pre-treated for 30 min with MTP inhibitor BMS-200150 ([…] dissolved in DMSO; (Jamil, H., Gordon, D. A., Eustice, D. C., Brooks, C. M., Dickson, J. K., Jr., Chen, Y., Ricci, B., Chu, C.-H., Harrity, T. W., Ciosek, C. P., Jr., Biller, S. A., Gregg, R. E., and Wetterau, J. R. (1996) Proc Natl Acad Sci USA 93, 11991-11995)) or DMSO alone (final concentration 0.5%) before adding radiolabel. The cells were further incubated for 4 hr and the conditioned media contents of apoB and apoE determined by immunoprecipitation and SDS-PAGE analysis as described above.

[2] = tested on: rat hepatoma cells; experiment: Pulse-chase recovery of [35S]-apoB100 (apoB100 degradation) in rat hepatoma cells; conditions: co-treatment with DHA, FIG. 13A and 13B
Protocol: (§1) FIG. 13 illustrates that either an iron chelator (DFX) or lipid antioxidants block DHA-stimulated apoB degradation and reactive oxygen species (ROS) production. Rat hepatoma cells were plated in culture wells and pre-incubated in media containing either DHA or DHA with one of the indicated compounds. Radiolabeled methionine/cysteine was added to the culture media for 15 minutes, after which time, the culture media were replaced by fresh media identical in composition except that radiolabeled methionine/cysteine were replaced by unlabeled methionone/cysteine. The recovery of labeled apoB100 ([^35S]-apoB100) from the media and cell lysate was determined at the indicated time points (with time 0 being the point when the fresh media were applied to the cells) by immunoprecipitating apoB species with a rabbit polyclonal antibody to rat apoB, resuspending the immunoprecipitates, combining aliquots from cell lysate and media samples from each well, resolving the protein contents of the combined immunoprecipitates by SDS-polyacrylamide gel electrophoresis (SDS-PAGE), and exposing the resultant gels to X-ray film in order to visualize the labeled apoB bands. In panel A are shown representative signals for radiolabeled apoB100 in each of the treatment conditions. […] For each treatment, there were at least 2 wells/treatment for each time point and the entire experiment repeated. The signal intensities of the apoB100 bands were quantified by densitometry and the mean relative recoveries (the % of the 15 minute, or initial, value still remaining at 120 minutes) ±SEM are shown in panel B. Note that the visual impressions observable in panel A are confirmed by the quantitative analysis; i.e., there is a substantial increase in labeled apoB100 recovery with any of the co-treatments. In panel C, the ROS content of the cell lysates at the end of the experiment was measured by the standard TBARS assay (Stocks et al., 1974, Clin Sci Mol Med 47,215-222). Note that compared to control (BSA), DHA induced a large increase in TBARS, as expected because of its high content on unsaturated bonds.
FIG. 14 illustrates that DHA, but not saturated MA, induces apoB100 degradation in rat hepatoma cells. An experiment similar to the one described in FIG. 13 was performed, with the following changes: A) The immunoprecipitates from cell lysate and media samples were not combined, but separately analyzed. B) In addition to the 15 and 120 minute time points, apoB recovery was determined at 30 minutes. C) In addition to DHA, the effects of the fatty acid myristic (MA) were also tested because it has no unsaturated bonds and should not give rise to ROS.
FIG. 15 illustrates that AA stimulates apoB100 degradation and increases ROS. […] Note in the upper panel that the combined recovery (from two separate wells/time point) of radiolabeled apoB100 decreased from 15 to 120 minutes, indicating significant apoB100 degradation had occurred in the presence of AA. […] In addition to being a source of ROS, AA can also be converted by cyclooxygenase (COX) to bioactive prostaglandin compounds. We therefore repeated the experiment with AA but with co-treatment by the COX inhibitor aspirin.
To further explore the underlying mechanisms, rat hepatoma cells or primary hepatocytes were incubated with the Ω-3 fatty acid DHA complexed to BSA, while blocking candidate cellular mediators. […] There was, however, strong evidence against a role for calcium. Chelation of intracellular Ca^++ with BAPTA-AM, pharmacologic blockage of Ca^++ channels, depletion of the ER-calcium pool, and increasing Ca++ influx with an ionophore each had no effect. Because EGTA also chelates Fe^+++, and DHA is subject to Fe^+++-dependent peroxidation, the role of this lipid modification was examined. As shown in FIG. 13A and 13B, Desferroxamine (DFX), a chelator of Fe^+++, the antioxidant vitamin E (Vit E), and the synthetic antioxidant BHT, each inhibited DHA-stimulated apoB100 degradation by ˜60%.

[3] = tested on: rat hepatoma cells; experiment: TBARS assay of ROS in cell lysates of rat hepatoma cells; conditions: co-treatment with DHA, FIG. 13C
Protocol: as §1, with “bonds. […] FIG. 15 illustrates that AA stimulates apoB100 degradation and increases ROS. […] Note in the upper panel that the combined recovery (from two separate wells/time point) of radiolabeled apoB100 decreased from 15 to 120 minutes, indicating significant apoB100 degradation had occurred in the presence of AA. […] In addition to being a source of ROS, AA can also be converted by cyclooxygenase (COX) to bioactive prostaglandin compounds. We therefore repeated the experiment with AA but with co-treatment by the COX inhibitor aspirin.” for “bonds.”

[4] = tested on: rat primary hepatocytes; experiment: Basal apoB100 degradation (pulse-chase recovery) in rat primary hepatocytes; conditions: FIG. 16A
[5] = tested on: rat primary hepatocytes; experiment: TBARS assay of ROS in rat primary hepatocytes; conditions: FIG. 16B
[6] = tested on: rat primary hepatocytes; experiment: Secretion of newly synthesized ([35S]methionine-labeled) VLDL-apoproteins by rat primary hepatocytes incubated with fatty acid/BSA complexes; conditions: fatty acid/BSA complexes (0.8 mM FA), VLDL fraction
Protocol: Cells were plated at a density of 2×10^6 cells/ml on 60-mm culture dishes (previously coated with poly-D-lysine) in modified M199 medium (M199, 1% fetal bovine serum [FBS], 1 mM nicotinamide, 0.1 nM insulin, 3 mg/ml choline, 1.1% L-glutamine, 1% BSA). After a four-hour attachment period, the medium was changed (modified M199 identical to the above except BSA was omitted and the concentration of FBS was raised to 10%). The next morning, cells were washed in serum-free medium three times, the experimental media added, and the cells incubated at 37° C. for 4-6 hours. The experimental medium consisted of serum-free RPMI containing the appropriate isotopes (see below) and fatty acids (FA) present at a final concentration of 0.8 mM complexed to BSA (FA:BSA molar ratio=5:1). The fatty acids used were oleic (OA), EPA, and DHA. Control medium was identical, except that BSA (0.16 mM) without fatty acids was present. For metabolic labeling of proteins, [^35S]methionine (70 uCi/ml) was included in the experimental media.
Following the 4-6 hour incubation period, the cell monolayer was washed, then solubilized in 0.1 M NaOH, and the cell protein determined by the Lowry method (Lowry, O. H., Rosebrough, N. J., Farr, A. L., and Randall, R. J. (1951) J Biol Chem 193, 265-75). Each 60 mm dish contained approximately 1-1.5 mg of cell protein. The secreted apoproteins were isolated from the medium either by ultracentrifugation or immunoprecipitation. To isolate the d<1.006 (VLDL) and 1.006<d<1.063 (IDL and LDL) g/ml density classes by centrifugation, sequential 20 hour runs at 48,000 rpm in a 50 Ti Beckman rotor at 4° C. were performed. After the first run at d=1.006, the upper VLDL layer was harvested and the density of the infranatant adjusted to 1.066 g/ml with solid KBr. After being overlaid with a KBr solution of density 1.063, the adjusted infranatant was re-centrifuged as before to isolate the IDL and LDL fractions. In some experiments, the HDL fraction (1.063<d<1.21) was isolated by sequential density centrifugation. Lipoprotein fractions were then dialyzed against 0.9% NaCl containing 10 mM unlabeled methionine, 0.2 mM PMSF, and 2 mM EDTA. Dialyzed lipoproteins were delipidated using 9 volumes of 100% isopropanol. Apoproteins were then collected by centrifugation in a Sorval HB-4 rotor at 10,000 rpm and 4° C. for 20 min, and dissolved in buffer (0.01 M phosphate, pH 7,1 % SDS, 10% glycerol), in preparation for electrophoresis.
To immunoprecipitate apoB or apoE from unfractionated conditioned medium, monospecific rabbit antiserum to rat apoB or apoE was used. Briefly, an aliquot of the medium was mixed with an equal volume of diluted antiserum (1:100 in PBS and 1% BSA) and incubated overnight at 4° C. Staph A was added in the form of immunoprecipitin, and the resultant precipitate containing the immune complexes was washed extensively, the staph A cells removed, and the isolated apoprotein dissolved in gel sample buffer (0.0625M tris/Cl, pH 6.8, 20% glycerol, 2% SDS). Electrophoretic separation of apoVLDL, apoIDL/LDL, and immunoprecipitates was accomplished using 3.5% acrylamide-18% glycerol gels as described (Maguire, G. F., Lee, M., and Connelly, P. W. (1989) J Lipid Res 30, 757-61). An aliquot of each sample was taken for scintillation counting, so that total radioactivity applied to each lane could be determined. Also, protein size standards were included in each gel.
After electrophoresis, the gels were stained, fixed, soaked in Enhance fluor solution, and dried following protocols supplied by the manufacturer. Dried gels were then exposed to X-ray film at −70° C. and signals on the resulting fluorograms were typically quantified by densitometry or phosphorimaging. Using the total radioactivity applied to each lane of the gel and the relative signal intensity of each band in that lane, the radioactivity associated with each apoprotein species was calculated. […]

[7] = tested on: rat primary hepatocytes; experiment: Nascent VLDL re-uptake: VLDL-apoprotein secretion with or without heparin
Protocol: FIG. 9 illustrates that DHA inhibits the secretion of newly synthesized VLDL-apoproteins even when re-uptake is blocked. Rat primary hepatocytes were treated as in FIG. 1, except that media in the indicated wells also was supplemented with heparin (10 mg/ml). Total labeled VLDL-apoproteins were determined as in FIG. 3. The results for the fatty acids are expressed relative to the corresponding result for BSA and are shown as mean ±SE (n=6).
To evaluate whether there were differential effects of fish oil fatty acids and OA on the re-uptake of newly synthesized VLDL, an experimental design identical to that described above was employed, except heparin (0.1 mg/ml or 10 mg/ml) was added to the treatment media to block LDL receptor-dependent and proteoglycan-mediated re-uptake (Williams, K. J., Fless, G. M., Petrie, K. A., Snyder, M. L., Brocia, R. W., and Swenson, T. L. (1992) J Biol Chem 267(19), 13284-92). Control experiments were performed showing that the flotation properties of VLDL were unchanged in the presence of heparin.
The concentration of heparin was 10 mg/ml, which blocks lipoprotein binding to both LDL receptors and HSPGs (Williams, K. J. et al. (1992) J Biol Chem 267(19), 13284-92, and citations therein). […] Thus, there is substantial re-uptake of nascent VLDL by primary hepatocytes in the presence of either fatty acid. […] Thus, re-uptake of newly exported apoB cannot explain the effect of Ω-3 fatty acids on lipoprotein secretion.

## O=C1c2ccccc2CN1C1CCN(CCC(c2ccccc2)c2ccccc2)CC1 [BMS compound #200150]
[1]
  secretion of newly synthesized apoB100: almost completely abolished
  secretion of newly synthesized apoE: no significant effect

## CC(=O)N(O)CCCCCNC(=O)CCC(=O)N(O)CCCCCNC(=O)CCC(=O)N(O)CCCCCN [DFX, desferrioxamine]
[2]
  inhibition of DHA-stimulated apoB100 degradation: ~60%
[3]
  DHA-increased ROS, TBARS assay, with co-treatment: reduced
[4]
  basal level of apoB degradation: essentially reversed
[5]
  ROS level (TBARS): reduced

## CC/C=C\C/C=C\C/C=C\C/C=C\C/C=C\C/C=C\CCC(=O)O [DHA, docosahexaenoic acid]
[6]
  secretion of newly synthesized VLDL-ApoB48, percentage of secretion observed with BSA alone: 39 ± 3 percentage
  secretion of newly synthesized VLDL-ApoB100, percentage of secretion observed with BSA alone: 24 ± 3 percentage
  secretion of newly synthesized VLDL-ApoE, percentage of secretion observed with BSA alone: 53 ± 2 percentage
[7]; independent of heparin treatment (10 mg/ml)
  secretion of VLDL apoproteins, % of the OA control: approximately 50%

## heparin
[7]; heparin 0.1 mg/ml
  apoB output in the presence of either fatty acid: failed to increase
[7]; heparin 10 mg/ml, P<0.01
  net secretion of newly synthesized VLDL-apoproteins during treatment with either OA or DHA: approximately two-fold
